# Measured values from patent US20070258926A1, “Composition containing retinoic acid nanoparticles coated with inorganic salt of polyvalent metal” (LTT BIO-PHARMA CO., LTD., priority 2003, published 2007).
# Test system: hyaluronic acid
# Conditions: topical application, mice
# Experimental: The dorsal skin of mice (ddy strain/5 week old/male) was clipped with electric clippers and a Vaseline based retinoic acid preparation (containing 0.1% retinoic acid) was applied to the clipped area 10 mg/cm^2 per day for 4 consecutive days.
structure (smiles),measurement,value
"CC1=C(/C=C/C(C)=C/C=C/C(C)=C/C(=O)O)C(C)(C)CCC1 [retinoic acid, all-trans retinoic acid]",colloidal iron staining of basal cells and prickle cells of the epithelium (production of hyaluronic acid),less significant
